From ChEMBL document CHEMBL1130653, “Derivatization of the C12-C13 functional groups of epothilones A, B and C” (Bioorg Med Chem Lett, 1998)
Values after ≈ are worked out from the molar mass of the structure shown.

Experiment: Cytotoxicity against L929 fibroblast cell line; Weak cytotoxic activity.
Assay type: functional, cell-based, Mus musculus

With `C/C(=C\c1csc(C)n1)[C@@H]1C[C@@H]2O[C@]2(C)CCC[C@H](C)[C@H](O)[C@@H](C)C(=O)C(C)(C)[C@@H](O)CC(=O)O1` [PATUPILONE] as the compound, how does the IC50 read?
The IC50 was “Weak cytotoxic activity”.

Which IC50 does the source give for `C/C(=C\c1csc(C)n1)[C@@H]1C[C@H](O)[C@@]2(C)CCC[C@H](C)[C@H](O)[C@@H](C)C(=O)C(C)(C)C(CC(=O)O1)O2` here?
The IC50 was “Weak cytotoxic activity”.

Which IC50 does the source give for `C/C(=C\c1csc(C)n1)[C@H]1C[C@H]2OCC[C@H](O)C(C)(C)C(=O)[C@H](C)[C@@H](O)[C@@H](C)CCC[C@H]2O1` here?
Its IC50 is “Weak cytotoxic activity”.

Which IC50 does the source give for `C/C(=C\c1csc(C)n1)[C@@H]1C[C@H](O)[C@@H](Cl)CCC[C@H](C)[C@H](O)[C@@H](C)C(=O)C(C)(C)[C@@H](O)CC(=O)O1` here?
The IC50 was “Weak cytotoxic activity”.

With `C/C(=C\c1csc(C)n1)[C@@H]1C[C@@H](O)[C@@H](O)CCC[C@H](C)[C@H](O)[C@@H](C)C(=O)C(C)(C)C(O)CC(=O)O1` (stereo partly drawn) as the compound, how does the IC50 read?
The IC50 was “Weak cytotoxic activity”.

With `C/C(=C\c1csc(C)n1)[C@@H]1C[C@H](O)[C@@](C)(Cl)CCC[C@H](C)[C@H](O)[C@@H](C)C(=O)C(C)(C)[C@@H](O)CC(=O)O1` as the compound, how does the IC50 read?
The IC50 was “Weak cytotoxic activity”.

With `C/C(=C\c1csc(C)n1)[C@H]1C[C@H]2OC(=O)C[C@H](O)C(C)(C)C(=O)[C@H](C)[C@@H](O)[C@@H](C)CCC[C@H]2O1` as the compound, how does the IC50 read?
Its IC50 is “Weak cytotoxic activity”.

Which IC50 does the source give for `C/C(=C\c1csc(C)n1)[C@@H](O)C[C@H]1OC(=O)C[C@H](O)C(C)(C)C(=O)[C@H](C)[C@@H](O)[C@@H](C)CCC[C@@]1(C)O` here?
Its IC50 is “Weak cytotoxic activity”.

Which IC50 does the source give for `C/C(=C\c1csc(C)n1)[C@@H]1C[C@H](O)[C@H](O)CCC[C@H](C)[C@H](O)[C@@H](C)C(=O)C(C)(C)C(O)CC(=O)O1` (stereo partly drawn) here?
Its IC50 is “Weak cytotoxic activity”.

Which IC50 does the source give for `C/C(=C\c1csc(C)n1)[C@@H]1C[C@@H]2OC(C)(C)O[C@@H]2CCC[C@H](C)[C@H](O)[C@@H](C)C(=O)C(C)(C)C(O)CC(=O)O1` (stereo partly drawn) here?
Its IC50 is “Weak cytotoxic activity”.

For `C/C(=C\c1csc(C)n1)[C@@H]1C[C@@H]2O[C@@H]2CCC[C@H](C)[C@H](O)[C@@H](C)C(=O)C(C)(C)[C@@H](O)CC(=O)O1` [EPOTHILONE A], which IC50 is on record?
Its IC50 is “Weak cytotoxic activity”.

For `C/C(=C\c1csc(C)n1)[C@@H]1C[C@@H](O)[C@H](O)CCC[C@H](C)[C@H](O)[C@@H](C)C(=O)C(C)(C)C(O)CC(=O)O1` (stereo partly drawn), which IC50 is on record?
The IC50 was “Weak cytotoxic activity”.

With `C/C(=C\c1csc(C)n1)[C@H](O)C[C@H]1OC(=O)C[C@H](O)C(C)(C)C(=O)[C@H](C)[C@@H](O)[C@@H](C)CCC[C@@]1(C)O` as the compound, how does the IC50 read?
The IC50 was “Weak cytotoxic activity”.

For `C/C(=C\c1csc(C)n1)[C@@H]1C[C@@H](Cl)[C@H](O)CCC[C@H](C)[C@H](O)[C@@H](C)C(=O)C(C)(C)[C@@H](O)CC(=O)O1`, which IC50 is on record?
Its IC50 is “Weak cytotoxic activity”.

For `C/C(=C\c1csc(C)n1)[C@@H]1CCCCCC[C@H](C)[C@H](O)[C@@H](C)C(=O)C(C)(C)C(O)CC(=O)O1` (stereo partly drawn), which IC50 is on record?
Its IC50 is “Weak cytotoxic activity”.

With `Cc1nc(CC(C)C(O)C[C@H]2OC(=O)C[C@H](O)C(C)(C)C(=O)[C@H](C)[C@@H](O)[C@@H](C)CCC[C@H]2O)cs1` (stereo partly drawn) as the compound, how does the IC50 read?
The IC50 was “Weak cytotoxic activity”.

With `C/C(=C\c1csc(C)n1)[C@@H]1C[C@H](O)[C@@](C)(O)CCC[C@H](C)[C@H](O)[C@@H](C)C(=O)C(C)(C)C(O)CC(=O)O1` (stereo partly drawn) as the compound, how does the IC50 read?
Its IC50 is “Weak cytotoxic activity”.

For `C/C(=C\c1csc(C)n1)[C@@H]1C[C@H]2OCC[C@H](O)C(C)(C)C(=O)[C@H](C)[C@@H](O)[C@@H](C)CCC[C@H]2O1`, which IC50 is on record?
Its IC50 is “Weak cytotoxic activity”.

With `C/C(=C\c1csc(C)n1)[C@@H]1C[C@H]2OC(=O)C[C@H](O)C(C)(C)C(=O)[C@H](C)[C@@H](O)[C@@H](C)CCC[C@H]2O1` as the compound, how does the IC50 read?
Its IC50 is “Weak cytotoxic activity”.

For `COC(C[C@H]1OC(=O)C[C@H](O)C(C)(C)C(=O)[C@H](C)[C@@H](O)[C@@H](C)CCC[C@H]1O)C(C)Cc1csc(C)n1` (stereo partly drawn), which IC50 is on record?
The IC50 was “Weak cytotoxic activity”.

Experiment: Compound was tested for cytotoxicity against L929 fibroblast cell lines in mouse
Assay type: functional, cell-based

For `C/C(=C\c1csc(C)n1)[C@@H]1CC2OC(C)(C)OC2CCC[C@H](C)[C@H](O)[C@@H](C)C(=O)C(C)(C)[C@@H](O)CC(=O)O1` (stereo partly drawn), which IC50 is on record?
The IC50 was 0.15 µg/mL (≈ 0.272 µM).

With `C/C(=C\c1csc(C)n1)[C@@H]1CC(O)C(O)CCC[C@H](C)[C@H](O)[C@@H](C)C(=O)C(C)(C)[C@@H](O)CC(=O)O1` (stereo partly drawn) as the compound, how does the IC50 read?
Its IC50 is > 4 µg/mL.

For `C/C(=C\c1csc(C)n1)[C@@H]1C/C=C\CCC[C@H](C)[C@H](O)[C@@H](C)C(=O)C(C)(C)[C@@H](O)CC(=O)O1` [EPOTHILONE C], which IC50 is on record?
The IC50 was 0.1 µg/mL (≈ 0.209 µM).
